Measurements published in US9173841B2, “Polymer nanoparticle injection formulation composition containing rapamycin with improved water solubility, preparation method thereof, and anticancer composition for combined use with radiotherapy” (SAMYANG BIOPHARMACEUTICALS CORPORATION, priority 2009, dated 2015).

Legend:
[1] = Experiment 4: in vivo pharmacokinetic behavior, rapamycin level in blood; set-up: species or system male Sprague-Dawley rats; settings: rats, intravenous administration
Experimental: The in vivo pharmacokinetic behavior of the rapamycin-entrapping nanoparticle composition of Example 1 was evaluated. For animal experiment, male Sprague-Dawley rats weighing 210 to 250 g were used, and 0.3 ml of whole blood was taken from caudal vein every 5, 15 and 30 minutes, and 1, 2, 4, 8 and 24 hours after intravenous and subcutaneous injection of the dose of 5 mg/kg, on the basis of rapamycin. The collected whole blood was treated with the Protein Precipitation (PPT, Progress in Pharmaceutical and Biomedical Analysis, Volume 5, 2003, Pages 199-254) and then centrifuged to obtain 0.15 ml of clear supernatant which was analyzed to check the rapamycin concentration in blood by LC/MS/MS method.
The in vivo pharmacokinetic behavior of the rapamycin-entrapping nanoparticle composition of Example 2 was evaluated by means of the same method as in Experiment 1. However, the composition was administered via oral, intravenous or subcutaneous route in the dose of 10 mg/kg on the basis of rapamycin, and 0.3 ml of whole blood was taken from caudal vein every 15 and 30 minutes, and 1, 2, 4, 8, 24 and 48 hours after administration.

[2] = cited from earlier work
[3] = male, Sprague-Dawley, rat, whole blood, 10 mg/kg

CO[C@H]1C[C@@H]2CC[C@@H](C)[C@@](O)(O2)C(=O)C(=O)N2CCCC[C@H]2C(=O)O[C@H]([C@H](C)C[C@@H]2CC[C@@H](O)[C@H](OC)C2)CC(=O)[C@H](C)/C=C(\C)[C@@H](O)[C@@H](OC)C(=O)[C@H](C)C[C@H](C)/C=C/C=C/C=C/1C [rapamycin, Rapamycin]
AUC(0-t) ([1]; male, Sprague-Dawley, rat, whole blood, 10 mg/kg on the basis of rapamycin): 5370 ng·h/mL | AUC(0-inf) [1, 3]: 5600 ng·h/mL | Cmax [1, 3]: 2890 ng/mL | Tmax [1, 3]: 0.25 h | half-life [1, 3]: 10.5 h | F ([1]; 10 mg/kg, free sirolimus intravenous = 100): 100% | solubility in water [2]: 1 to 2 µg/mL
